From patent publication US5539127A, “7-substituted oxa- or azasteroid compound” (Teikoku Hormone Mfg. Co., Ltd., priority 1992, dated 1996)
Where a name gives a salt, the structure may show the parent alone.

Columns and labels:
aromatase [1] = assay: Assay of aromatase-inhibiting action (in vivo), inhibition of DHEAS-induced cornification of vaginal smear; parameters: species or system rat; details: for Inhibition rate (cornification-inhibiting action against cornification in the solvent administration group): mature female rats after enucleation of the pituitary gland, 2 mg/kg test compound orally with 16 mg/kg DHEAS once a day, 4 days, smears of day 3 to 5
Description: (2) Assay of aromatase-inhibiting action (in vivo)
Aromatase-inhibiting action was assayed according to the method developed by G. H. Deckers and A. H. W. M. Schuurs (Journal of Steroid Biochemistry,32, 625-631, (1989)).
Namely, groups of mature female rats at one week after enucleation of the pituitary gland were used, each group consisting of 8 to 10 animals. 16 mg/kg of dehydroepiandrosterone sulfate (DHEAS) and 5 ml/kg of a solvent (physiological saline containing 2% polysorbate 80), or DHEAS and 2 mg/kg of a test compound suspended in the solvent were orally administered to each rat once a day for the succeeding 4 days. For 6 days starting from the next day of the first administration, vaginal smear was sampled and observed by a microscope after being stained with Giemsa staining solution. Cornification of the vaginal smear with DHEAS was observed from 3 days after the first administration, and its action disappeared 6 days thereafter. Therefore, the cornification smear number was assumed to be the total of 3 days from the third day to fifth day after the initiation of administration. A cornification-inhibiting action with a test compound was expressed as the rate against cornification in the solvent administration group.
In this connection, the cornification of vaginal smear is caused by estrogens biosynthesized from DHEAS by aromatase, and therefore, when aromatase is inhibited, inhibition of cornification is observed.

aromatase [2] = target: T1, aromatase (Homo sapiens, UniProt P11511); assay: Assay of aromatase-inhibiting action (in vitro), human placental microsome, 3H2O release from [1,2-3H]androstenedione; type: biochemical; details: 2 μM [1,2-3H]androstenedione, 180 μM NADPH, pH 7.5, 37° C., 20 minutes
T1 construct: 150 μg of freeze dried human placental microsome; from tissue; host or cells: human placenta, microsomes
T1 sequence (P11511 1-503): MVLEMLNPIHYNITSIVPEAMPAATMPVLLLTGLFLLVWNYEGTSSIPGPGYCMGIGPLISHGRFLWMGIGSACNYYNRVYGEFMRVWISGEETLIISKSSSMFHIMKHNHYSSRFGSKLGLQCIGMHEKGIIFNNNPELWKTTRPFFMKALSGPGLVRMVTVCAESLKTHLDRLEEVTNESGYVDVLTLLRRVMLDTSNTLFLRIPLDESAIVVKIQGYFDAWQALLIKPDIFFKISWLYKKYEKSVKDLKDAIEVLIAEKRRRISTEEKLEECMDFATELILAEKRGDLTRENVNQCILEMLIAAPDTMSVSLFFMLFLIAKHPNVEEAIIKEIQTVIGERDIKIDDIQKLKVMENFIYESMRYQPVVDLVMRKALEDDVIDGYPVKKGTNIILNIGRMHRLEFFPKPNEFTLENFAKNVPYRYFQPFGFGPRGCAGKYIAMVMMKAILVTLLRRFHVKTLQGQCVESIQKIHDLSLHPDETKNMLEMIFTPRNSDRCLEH
Description: (1) Assay of aromatase-inhibiting action (in vitro)
Human placental microsome (centrifuged at 105,000×g for 60 minutes) was prepared, according to the method of Ryan (The Journal of Biological Chemistry, 234, 268-272, (1959)). The microsome was used after it was washed twice with 0.5 mM dithiothreitol solution, freeze dried, and stored at -20° C.
The aromatase-inhibiting action was assayed according to the method developed by Tompson and Siiteri (Journal of Biological Chemistry, 249, 5373-5378, (1974)). Namely, the method comprises quantitatively determining ^3 H2 O released through aromatization of [1,2-^3 H]androstenedione. The experiment using the enzyme was performed in 67 mM phosphate buffer (pH 7.5) so that the final amount of the incubation solution could be 0.5 ml. The incubation solution contained 180 μM of NADPH, 2μM of [1,2-^3 H]androstenedione, 150 μg of freeze dried human placental microsome, 25 μl of methanol and a test compound in various concentrations. Incubation was performed in the air at 37° C. for 20 minutes, the reaction was terminated with addition of 3 ml of chloroform, and the mixture was stirred for 40 seconds. The mixture was centrifuged at 700×g for 10 minutes, 0.3 ml of the aqueous solution was taken from the supernatant, the scintillation mixture was added, and the amount of ^3 H2 O formed was measured.

[3] = 16 mg/kg DHEAS orally, once a day, rats

Row | Structure (SMILES) | Cornification of the vaginal smear with DHEAS observed from (days after the first administration) (aromatase [1]; [3]) [days] | disappearance of the cornification action of DHEAS (days thereafter) (aromatase [1]; [3]) [days] | IC50 (aromatase [2]) [µM] | Inhibition rate (cornification-inhibiting action against cornification in the solvent administration group) (aromatase [1]) [%]
1 | C[C@]12CC[C@H](OS(=O)(=O)O)CC1=CC[C@@H]1[C@@H]2CC[C@]2(C)C(=O)CC[C@@H]12 [DHEAS, dehydroepiandrosterone sulfate, reference compound] | 3 | 6 |  | 
2 | C[C@]12CCC(=O)C=C1C[C@@H](Sc1ccc(N)cc1)[C@@H]1[C@@H]2CC[C@]2(C)C(=O)OCC[C@@H]12 [Example 1, 7α-[(4-aminophenyl)thio]-D-homo-17-oxaandrost-4-ene-3,17a-dione] |  |  | 2.3 | 
3 | C[C@]12CC[C@H]3[C@@H]([C@H](S)CC4=CC(=O)C=C[C@@]43C)[C@@H]1CCOC2 [Example 8, 7α-mercapto-D-homo-17-oxaandrosta-1,4-dien-3-one] |  |  | 0.4 | 68.2 ± 13.6
4 | C[C@]12C=CC(=O)C=C1C[C@@H](S)[C@@H]1[C@@H]2CC[C@]2(C)C(=O)OCC[C@@H]12 [Example 16, 7α-mercapto-D-homo-17-oxaandrosta-1,4-diene-3,17a-dione] |  |  | 0.5 | 70.6 ± 15.6
5 | CC(=O)S[C@H]1CC(=O)C=C2C[C@@H](SC(C)=O)[C@@H]3[C@H](CC[C@]4(C)C(=O)OCC[C@@H]34)[C@]21C [Example 43, 1α,7α-bis(acetylthio)-D-homo-17-oxaandrost-4-ene-3,17a-dione] |  |  |  | 70.6 ± 15.6
